Measurements from the supplement of paper PMC10307832.

Assays:
Assay in all cases: relative viability (nuclei count vs DMSO), 5 days (fraction); higher = more cells survive
Carfilzomib + Lapatinib = compound: CC(C)C[C@H](NC(=O)[C@H](CCc1ccccc1)NC(=O)CN1CCOCC1)C(=O)N[C@@H](Cc1ccccc1)C(=O)N[C@@H](CC(C)C)C(=O)[C@@]1(C)CO1 [Carfilzomib] + CS(=O)(=O)CCNCc1ccc(-c2ccc3ncnc(Nc4ccc(OCc5cccc(F)c5)c(Cl)c4)c3c2)o1 [Lapatinib] (partner 2 µM)
Outline: (§1)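 Nuclei were stained with Hoechst during a one-step fixation (final 0.05% Triton X-100, 1% formaldehyde, 1 ug/ml Hoechst) carried out 5 days after dosing, then counted on 4× images. The cells, lung cancer lines in 1536-well plates, had been dosed by pin tool the day after seeding with one drug alone or a fixed anchor-drug dose plus five library-drug doses (not always all listed) in √10 steps. Relative viability is the nuclei count in treated wells divided by that in vehicle wells, and each value is the median of duplicate plates.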

Crizotinib + Decitabine = compound: C[C@@H](Oc1cc(-c2cnn(C3CCNCC3)c2)cnc1N)c1c(Cl)ccc(F)c1Cl [Crizotinib] + Nc1ncn([C@H]2C[C@H](O)[C@@H](CO)O2)c(=O)n1 [Decitabine] (partner 2 µM)
Outline: as §1

Olaparib + Phenformin = compound: O=C(c1cc(Cc2n[nH]c(=O)c3ccccc23)ccc1F)N1CCN(C(=O)C2CC2)CC1 [Olaparib] + N=C(N)NC(=N)NCCc1ccccc1 [Phenformin] (partner 250 µM)
Outline: as §1

Carfilzomib + Pemetrexed = compound: CC(C)C[C@H](NC(=O)[C@H](CCc1ccccc1)NC(=O)CN1CCOCC1)C(=O)N[C@@H](Cc1ccccc1)C(=O)N[C@@H](CC(C)C)C(=O)[C@@]1(C)CO1 [Carfilzomib] + Nc1nc2[nH]cc(CCc3ccc(C(=O)N[C@@H](CCC(=O)O)C(=O)O)cc3)c2c(=O)[nH]1 [Pemetrexed] (partner 0.2 µM)
Outline: as §1

Cell Line	relative viability (Carfilzomib + Lapatinib; first compound 0.001 µM)	relative viability (Carfilzomib + Lapatinib; first compound 0.003162 µM)	relative viability (Carfilzomib + Lapatinib; first compound 0.01 µM)	relative viability (Carfilzomib + Lapatinib; first compound 0.03162 µM)	relative viability (Carfilzomib + Lapatinib; first compound 0.1 µM)	relative viability (Crizotinib + Decitabine; first compound 0.01 µM)	relative viability (Crizotinib + Decitabine; first compound 0.03162 µM)	relative viability (Crizotinib + Decitabine; first compound 0.1 µM)	relative viability (Crizotinib + Decitabine; first compound 0.3162 µM)	relative viability (Crizotinib + Decitabine; first compound 1 µM)	relative viability (Olaparib + Phenformin; first compound 0.08 µM)	relative viability (Olaparib + Phenformin; first compound 0.253 µM)	relative viability (Olaparib + Phenformin; first compound 2.53 µM)	relative viability (Olaparib + Phenformin; first compound 8 µM)	relative viability (Carfilzomib + Pemetrexed; first compound 0.001 µM)	relative viability (Carfilzomib + Pemetrexed; first compound 0.003162 µM)	relative viability (Carfilzomib + Pemetrexed; first compound 0.01 µM)	relative viability (Carfilzomib + Pemetrexed; first compound 0.03162 µM)	relative viability (Carfilzomib + Pemetrexed; first compound 0.1 µM)
Calu-6	1.08	1.12	1.13	0.135	0.116	–	–	–	–	–	–	–	–	–	–	–	–	–	–
ChaGo-K-1	–	–	–	–	–	0.485	0.488	0.528	0.463	0.536	0.624	0.441	0.475	0.42	0.27	0.258	0.258	0.262	0.179
EBC-1	0.228	0.203	0.208	0.169	0.144	–	–	–	–	–	–	–	–	–	–	–	–	–	–
EKVX	0.221	0.416	0.212	0.183	0.137	0.29	0.339	0.323	0.336	0.337	0.268	0.243	0.221	0.248	0.393	0.447	0.489	–	0.371
EMC-BAC-2	0.89	0.958	0.879	0.843	0.471	0.96	0.921	1.01	–	0.967	0.558	0.504	0.558	0.437	0.496	0.492	0.46	0.434	0.432
EPLC-272H	0.804	1.47	1.06	0.298	0.0991	0.339	0.375	0.366	–	0.436	0.389	0.298	0.289	0.338	0.367	0.263	0.46	0.114	0.0633
H3255	0.252	0.338	0.259	0.225	0.296	0.701	0.576	0.616	0.558	0.653	0.435	0.342	0.38	0.385	0.544	0.601	0.578	0.423	0.249
HARA	0.817	0.911	0.882	0.0695	0.0699	0.489	0.524	0.514	0.4	0.531	0.584	0.398	0.36	0.36	0.241	0.23	0.252	0.0877	0.155
HCC-15	0.857	0.872	0.918	0.428	0.176	0.663	0.71	0.657	0.527	0.599	0.599	0.423	0.445	0.409	0.242	0.218	0.238	0.224	0.13
